SMILES strings stand for the structures. Where two headings read alike, the source gives them in different places.

For data set [1] the following is noted: animal metabolic and nutritional studies, human nutritional and cancer studies/clinical trials; cited from earlier work.
The subject of another data set is FOXO3a. Nature of the data set: Mouse ovarian organ culture, FOXO3a mRNA and protein expression. Type of data set: cell-based.
The test system of a further data set is type 3a follicles. Nature of the data set: Pilot study in mice injected IP daily for two weeks: histological count of follicle types per ovary. The conditions noted are these: for Reduction in number of type 3a follicles: two weeks, vs PBS controls. Type of data set: in vivo. As to the method: (§1) Not to be bound to any particular mechanism, it is believed that in one aspect of the present invention, by administering a therapeutically effective amount of the non-hormonal contraceptive composition to a female subject, cellular signals are induced activating a regulatory factor which blocks maturation of the […] and suppresses ovulation. In one example, a pilot study was conducted in which 5-week-old mice were intraperitoneally (IP) injected daily with 2-DG for two weeks. To determine an effective dose, 100, 300 and 600 mg/kg 2-DG was tested, with 6 animals in each treated group and 6 mice in the control group (0) injected with PBS. Following the two week study, the mice were sacrificed and the ovaries removed for mRNA and histological analyses. […] The contralateral ovary was used for histological analysis of the total numbers of follicle types in the entire ovary. Ovaries were fixed in 10% neutral buffered formalin, embedded in paraffin, then serially sectioned at 8 μm and stained with hematoxylin. Follicles were counted in every fifth section with random start. Follicles were classified following Pedersen and Peters guidelines. Most relevant to the data presented here, type 3a and 3b follicles were classified as having a single layer of granulosa cells surrounding the oocyte, and the two were distinguished from each other by the number of granulosa cells in that single layer. […] Only follicles containing an oocyte with a clearly visible nucleus were scored, to ensure that each follicle was counted only once. It should be noted that type 3a follicles are the first stage of folliculogenesis from the primordial follicle, the dormant stage at which FOXO3a acts as a brake. After follicles were counted in each fifth section, the total number of each type was multiplied by a correction factor of five to estimate total number of follicles in each ovary. The collective data is shown in the bar graph in FIG. 5. […] This is particularly advantageous as it allows lower dosages of one of the analogs or dosages of two or more analogs in therapeutic compositions. […]

Data set [2] has as its system Foxo3a mRNA. In words: Foxo3a mRNA by real-time RT-PCR in SKOV3 cells treated with 2-deoxyglucose. In kind it is cell-based, human. From the text: In another embodiment, the subject invention relates to a method for decreasing the fertility of a subject, comprising administering a therapeutically effective amount of a glucose analog to the subject, wherein the glucose analog comprises one or more of (i) 2-deoxyglucose (2DG) or a combination of 2DG with chemical derivatives of 2DG with similarly documented ovarian activity; (ii) D-mannoheptulose; or (iii) 5-thio-D-glucose; and the administering step inhibits ovulation in the female subject. In a further embodiment, the glucose analog elevates the production of FOXO3a. In yet a further embodiment, FOXO3a prevents activation of oocytes during follicle development. In another embodiment, a therapeutically effective amount of at least one glucose analog is co-administered to the subject. In one example, FOXO3a mRNA and protein levels are induced in response to amino acid and glucose_deprivation in human ovarian carcinoma (SKOV3) cells. In order to establish a connection between FOXO3a and glucose deprivation, one example was used in which human ovarian carcinoma (SKOV3) cells were treated with 2-deoxyglucose (2-DOG or 2-DG) followed by mRNA analysis by real-time RT-PCR (FIG. 1) and immunoblot analysis (FIG. 2). 2-DG has been effectively employed as an alternative to glucose (deprivation) depletion. […] The fold increases were determined using a ΔΔCT method with cyclophilin A as the internal reference gene for each sample. […] Control cells (FED/MEM) were given complete media.
On the technique in general: Real-time PCR tracks product formation cycle by cycle.

The next data set relates to FOXO3a protein. In words: Immunoblot analysis of FOXO3a protein levels in SKOV3 cells. The note with it: vs FED/MEM control. Type of data set: cell-based, human. The text has this:
In another embodiment, the subject invention relates to a method for decreasing the fertility of a subject, comprising administering a therapeutically effective amount of a glucose analog to the subject, wherein the glucose analog comprises one or more of (i) 2-deoxyglucose (2DG) or a combination of 2DG with chemical derivatives of 2DG with similarly documented ovarian activity; (ii) D-mannoheptulose; or (iii) 5-thio-D-glucose; and the administering step inhibits ovulation in the female subject. In a further embodiment, the glucose analog elevates the production of FOXO3a. In yet a further embodiment, FOXO3a prevents activation of oocytes during follicle development. In another embodiment, a therapeutically effective amount of at least one glucose analog is co-administered to the subject. In one example, FOXO3a mRNA and protein levels are induced in response to amino acid and glucose_deprivation in human ovarian carcinoma (SKOV3) cells. In order to establish a connection between FOXO3a and glucose deprivation, one example was used in which human ovarian carcinoma (SKOV3) cells were treated with 2-deoxyglucose (2-DOG or 2-DG) followed by mRNA analysis by real-time RT-PCR (FIG. 1) and immunoblot analysis (FIG. 2). […] The fold increases were determined using a ΔΔCT method with cyclophilin A as the internal reference gene for each sample. […]
Background: Immunoblotting shows a protein as a band on a membrane.

Data set [3] deals with Foxo3a mRNA. Nature of the data set: Pilot study in mice injected IP daily for two weeks: ovary Foxo3a mRNA by real-time RT-PCR. In kind it is in vivo. The conditions noted are these: for Foxo3a mRNA levels in ovary, increase: two weeks, 5-week-old mice. As to the method: as §1
For data set [4] the following is noted: cited from earlier work.
The conditions of data set [5]: women, cited from earlier work.
The mark [6] stands for this setting: preliminary dose response studies, mice injected for two weeks.

With `O=CC[C@@H](O)[C@H](O)[C@H](O)CO` [2-DG, 2-deoxyglucose], in data set [1], the Side effects entry was “no documented side effects”. In addition, the “FOXO3a mRNA and protein expression” value in the data set on FOXO3a and in the data set on Foxo3a mRNA [2] (human ovarian carcinoma cells in culture) was “specific induction” in each case. Besides, the figures for the “Reduction in number of type 3a follicles” value in the data set with type 3a follicles (100 mg/kg IP daily) and in the data set with type 3a follicles (600 mg/kg IP daily) were about 60% and 32%, respectively. Besides, the “Decrease in maturation of primary follicles” value with type 3a follicles (setting [6]) was 32-60%. In addition, the “Duration of Foxo3a mRNA induction” value in the data set with Foxo3a mRNA [2] (SKOV3 cells) is on record as “maintained out to 24 h”. Moreover, the “Foxo3a mRNA induction” value with Foxo3a mRNA [2] (SKOV3 cells, by 4 h, ΔΔCT vs cyclophilin A) was “approximately 2.5 fold”. The Foxo3a protein levels result in the data set on FOXO3a protein is “increased”. For the same compound, the figures for the “Foxo3a mRNA levels in ovary, increase” value in the data set on Foxo3a mRNA [3] (100 mg/kg IP daily) and with Foxo3a mRNA [3] (600 mg/kg IP daily) were about 4 fold and about 2.75 fold, respectively. Besides, the “Increase in mRNA synthesis of FOXO3a in the ovary” value with Foxo3a mRNA [3] (setting [6]) is recorded as 2-4 fold. The “Solubility in aqueous solutions” value in data set [4] was “freely soluble”.
`N[C@H](CO)Cc1c[nH]cn1` [His-OH, histidinol, reference compound]: in the data set with FOXO3a protein, the Foxo3a protein levels entry is reported as “increased”.
With `CC(=O)O[C@]1(C(C)=O)CC[C@H]2[C@@H]3C[C@H](C)C4=CC(=O)CC[C@]4(C)[C@H]3CC[C@@]21C` [depot medroxyprogesterone acetate, medroxyprogesterone acetate], the “Loss in bone mineral density” value in data set [5] (after 24 months of use, average) was 5.7%; in data set [5] (between months 12 and 24), 3.2%.

The values above are taken from patent publication US9248142B2, “Non-hormonal female contraceptive” (University of Florida Research Foundation, Inc., priority 2010, dated 2016).
